Measured values reported in the NIST ThermoML archive (doi:10.1016/j.tca.2013.07.005).
± gives the expanded uncertainty stated by the source.

Key:
[1] = Crystal; for vapor or sublimation pressure: Transpiration method; for Normal melting temperature: DTA
[2] = Molar enthalpy of transition or fusion; conditions: Crystal; DSC

Row | Structure (SMILES) | vapor or sublimation pressure ([1]; 353.15 K) [kPa] | vapor or sublimation pressure ([1]; 360.15 K) [kPa] | vapor or sublimation pressure ([1]; 371.15 K) [kPa] | vapor or sublimation pressure ([1]; 373.15 K) [kPa] | vapor or sublimation pressure ([1]; 375.15 K) [kPa] | vapor or sublimation pressure ([1]; 377.15 K) [kPa] | vapor or sublimation pressure ([1]; 381.15 K) [kPa] | Normal melting temperature [1] [°C] | Molar enthalpy of transition or fusion [2] [kJ/mol] | vapor or sublimation pressure ([1]; 383.15 K) [kPa] | vapor or sublimation pressure ([1]; 386.15 K) [kPa] | also measured
1 | COc1ccc(NC2=NCCC3(CCCCC3)S2)cc1 [N-(4-methoxyphenyl)-1-thia-3-azaspiro[5.5]undec-2-en-2-amine] | 3.4e-09 | 9.5e-09 | 3.63e-08 | 4.28e-08 | 5.23e-08 | 6.63e-08 | 9.73e-08 | 115.4 ± 2.1 | 27.3 ± 1.1 | – | – | vapor or sublimation pressure ([1]; 355.15 K): 4.7e-09 kPa; vapor or sublimation pressure ([1]; 358.15 K): 6.5e-09 kPa; vapor or sublimation pressure ([1]; 362.15 K): 1.15e-08 kPa; vapor or sublimation pressure ([1]; 365.15 K): 1.64e-08 kPa; vapor or sublimation pressure ([1]; 367.15 K): 2.17e-08 kPa; vapor or sublimation pressure ([1]; 369.15 K): 2.73e-08 kPa
2 | CC(=O)c1ccc(NC2=NCCC3(CCCCC3)S2)cc1 | – | – | – | 4.1e-09 | 5.3e-09 | 6.8e-09 | 1.13e-08 | 163.5 ± 2.1 | 32.5 ± 1.2 | 1.46e-08 | 2.15e-08 | vapor or sublimation pressure ([1]; 379.15 K): 8.8e-09 kPa; vapor or sublimation pressure ([1]; 385.15 K): 1.87e-08 kPa; vapor or sublimation pressure ([1]; 387.15 K): 2.52e-08 kPa; vapor or sublimation pressure ([1]; 388.15 K): 2.87e-08 kPa; vapor or sublimation pressure ([1]; 390.15 K): 3.44e-08 kPa; vapor or sublimation pressure ([1]; 391.15 K): 3.72e-08 kPa; vapor or sublimation pressure ([1]; 392.15 K): 4.46e-08 kPa; vapor or sublimation pressure ([1]; 393.15 K): 5.03e-08 kPa; vapor or sublimation pressure ([1]; 394.15 K): 5.5e-08 kPa; vapor or sublimation pressure ([1]; 396.15 K): 7.28e-08 kPa; vapor or sublimation pressure ([1]; 397.15 K): 7.97e-08 kPa
3 | O=C(NC1=NCCC2(CCCCC2)S1)c1ccccc1 [N-(1-thia-3-azaspiro[5.5]undec-2-en-2-yl)benzamide] | 2.2e-09 | 3.8e-09 | 8.9e-09 | 1.06e-08 | 1.28e-08 | 1.4e-08 | 2e-08 | 130.2 ± 2.1 | 27.9 ± 1.2 | 2.26e-08 | 2.87e-08 | vapor or sublimation pressure ([1]; 354.15 K): 2.3e-09 kPa; vapor or sublimation pressure ([1]; 357.15 K): 3.1e-09 kPa; vapor or sublimation pressure ([1]; 363.15 K): 4.8e-09 kPa; vapor or sublimation pressure ([1]; 366.15 K): 5.8e-09 kPa; vapor or sublimation pressure ([1]; 368.15 K): 6.8e-09 kPa; vapor or sublimation pressure ([1]; 378.15 K): 1.51e-08 kPa; vapor or sublimation pressure ([1]; 380.15 K): 1.85e-08 kPa
